Reference: patent US20110111016A1, “NON-DNA BASE-CONTAINING POLYNUCLEOTIDE COMPOSITIONS AND THEIR USE FOR THE MODULATION OF IMMUNE RESPONSES” (priority 2009, published 2011)
Strand notation (5' to 3'): a small letter for the sugar, then the base; units joined by * are phosphorothioate-linked, units joined directly phosphodiester-linked; [ ] holds rarer units or linkages, { } end groups; capitals alone tell only the bases. d = 2'-deoxy (DNA)

System: human PBMC
Experiment: Induction of cytokines and chemokines from human PBMC, comparison with CpG polynucleotides (Milliplex MAP kit)
Type: cell-based
Conditions: for Cytokine, IL-6 / Cytokine, IL-10 / Cytokine, MCP-1 / Cytokine, RANTES (CCL5): human PBMC culture supernatant, 48 h, final concentration 10 μg/mL; for Chemokine (MCP-1, RANTES) inducing activity towards human PBMC (in words) / Interleukin (cytokine) inducing activity towards human PBMC (in words): in comparison to LPS and MCC, Table 14
Description: LPS and MCC were included as positive controls as described in Example 7. PBMC were isolated from whole blood using standard Ficoll-Paque Plus (GE Healthcare Life Sciences, Baie d'Urfé, QC, Canada) gradient centrifugation, and placed in tissue culture plates at a concentration of 1×10^6 cells/mL (total volume: 1 mL in RPMI 1640 medium containing 10% heat-inactivated FBS (both from Wisent, St-Bruno, QC, Canada) and 50 μg/mL gentamycin sulfate (Sigma-Aldrich Canada, Oakville, ON, Canada). Non-DNA base-containing polynucleotide SEQ ID NOs: 1, 2, 3, 4, 5, 6, 7, 8 and 9 were added to separate wells to give a final concentration of 10 μg/mL, LPS was added to give a final concentration of 10 μg/mL, and the non-CpG 4010, CpG 2336, CpG 2429 and CpG 7909 polynucleotides, SEQ ID NOs: 31, 33, 35 and 34, respectively, were added to give a final concentration of 10 μg/mL.
The cells were then cultivated for 48 h. Cytokines (interleukins IL-6 and IL-10, chemokines MCP-1 and RANTES) in the culture supernatant were measured using a Milliplex™ MAP kit (Millipore Corporation, Billerica, Mass., USA) on a Bio-Plex 200 system (Bio-Rad Laboratories, Hercules, Calif., USA). MCP-1, also known as monocyte chemotactic protein, is an essential chemokine required for effective monocyte and myeloid dendritic cell activation and trafficking across endothelial and epithelial barriers (see for example Henkel et al, 2004 Ann. Neurol. 55:221-235), and RANTES (Regulated on Activation, Normal T cell Expressed and Secreted, now more commonly known as CCL5) is produced by memory phenotype T cells and is chemotactic for and activates T-cells (see for example Swanson et al, 2002 Immunity 17:605-615).

Substance	Cytokine, IL-6 [pg/mL]	Cytokine, IL-10 [pg/mL]	Cytokine, MCP-1 [pg/mL]	Cytokine, RANTES (CCL5) [pg/mL]	Chemokine (MCP-1, RANTES) inducing activity towards human PBMC (in words)	Interleukin (cytokine) inducing activity towards human PBMC (in words)
GNebG (DNA GNG; Central nebularine, sugar and linkages not given here, further chemistry not given here) [SEQ ID NO: 4, 5′-OH, 3′-OH non-DNA base-containing polynucleotide]	1960	28	7000	211	strong	strong
5′-TCGTCGTTTTGTCGTTTTGTCGTT-3′ [SEQ ID NO: 34, reference compound]	41	2	1270	187	strong MCP-1 inducing activity	did not induce cytokines
5′-GGGGACGACGTCGTCGGGGGG-3′ (DNA dG*dG*dG*dG*dA*dC*dG*dA*dC*dG*dT*dC*dG*dT*dC*dG*dG*dG*dG*dG*dG) [SEQ ID NO: 33, reference compound]	9	0	573	105	strong MCP-1 inducing activity	did not induce cytokines
GGGTGGIII (DNA GGGTGGNNN; Three 3' inosines, sugar and linkages not given here, further chemistry not given here) [SEQ ID NO: 7, 5′-OH, 3′-OH non-DNA base-containing polynucleotide]	1	0	79	71	marginal or no	marginal or no
GUG (DNA GNG; Central uracil in DNA, sugar and linkages not given here, further chemistry not given here) [SEQ ID NO: 8, 5′-OH, 3′-OH non-DNA base-containing polynucleotide]	0	0	78	78	marginal or no	marginal or no
5′-TCGTCGTTTTCGGCGGCCGCCG-3′ (DNA dT*dC*dG*dT*dC*dG*dT*dT*dT*dT*dC*dG*dG*dC*dG*dG*dC*dC*dG*dC*dC*dG) [SEQ ID NO: 35, reference compound]	42	0	906	136	strong MCP-1 inducing activity	did not induce cytokines
GIG (DNA GNG; Central inosine, sugar and linkages not given here, further chemistry not given here) [SEQ ID NO: 6, 5′-OH, 3′-OH non-DNA base-containing polynucleotide]	0	0	48	137	marginal or no	marginal or no
GGGTGGUUU (DNA GGGTGGNNN; Three 3' uracils, sugar and linkages not given here, further chemistry not given here) [SEQ ID NO: 9, 5′-OH, 3′-OH non-DNA base-containing polynucleotide]	133	1	914	117	strong MCP-1 inducing activity	–
